The NIST ThermoML archive (doi:10.1016/j.fluid.2018.10.006)
Values joined by “and” are separate entries in the source; they are usually repeats but may differ in a detail not shown here. Equal values may be shown once.

Details: Fluid (supercritical or subcritical phases), Coaxial cylinder method

CCCCCC [hexane]
thermal conductivity
Details	510.36 K	511.55 K
900 kPa	–	0.03854 W/m/K
1000 kPa	–	0.03823 W/m/K
1100 kPa	–	0.03832 W/m/K
1200 kPa	–	0.03859 W/m/K
1300 kPa	–	0.03877 W/m/K
1400 kPa	–	0.03895 W/m/K
1500 kPa	–	0.03914 W/m/K
1600 kPa	–	0.03932 W/m/K
1700 kPa	–	0.0397 W/m/K
1800 kPa	–	0.04008 W/m/K
1900 kPa	–	0.04047 W/m/K
2000 kPa	–	0.04087 W/m/K
2100 kPa	–	0.04127 W/m/K
2200 kPa	–	0.0419 W/m/K
2300 kPa	–	0.04254 W/m/K
2400 kPa	–	0.04342 W/m/K
2462 kPa	–	0.04388 W/m/K
2466 kPa	–	0.04388 W/m/K
2500 kPa	–	0.04434 W/m/K
2600 kPa	–	0.0453 W/m/K
2700 kPa	–	0.04656 W/m/K
2800 kPa	–	0.04846 W/m/K
2900 kPa	–	0.05075 W/m/K
2973 kPa	–	0.05292 W/m/K
2988 kPa	–	0.05356 W/m/K
3050 kPa	–	0.05558 W/m/K
3065 kPa	–	0.05634 W/m/K
3084 kPa	–	0.05785 W/m/K
3096 kPa	–	0.05908 W/m/K
3103 kPa	–	0.05968 W/m/K
3110 kPa	–	0.06064 W/m/K
3116 kPa	–	0.06128 W/m/K
3130 kPa	–	0.06341 W/m/K
3140 kPa	–	0.06508 W/m/K
3145 kPa	–	0.06587 W/m/K
3150 kPa	–	0.06678 W/m/K
3155 kPa	–	0.06787 W/m/K
3160 kPa	–	0.06879 W/m/K
3165 kPa	–	0.0699 W/m/K
3168 kPa	–	0.07058 W/m/K
3170 kPa	–	0.07104 W/m/K
3173 kPa	–	0.0718 W/m/K
3175 kPa	–	0.07228 W/m/K
3180 kPa	–	0.07336 W/m/K
3183 kPa	–	0.07404 W/m/K
3185 kPa	–	0.07447 W/m/K
3187 kPa	–	0.07504 W/m/K
3190 kPa	–	0.07571 W/m/K
3192 kPa	–	0.07616 W/m/K
3193 kPa	–	0.07629 W/m/K
3195 kPa	–	0.07668 W/m/K
3200 kPa	–	0.07761 W/m/K
3205 kPa	–	0.07821 W/m/K
3212 kPa	–	0.07869 W/m/K
3220 kPa	–	0.07869 W/m/K
3225 kPa	–	0.07855 W/m/K
3230 kPa	0.07155 W/m/K	0.07767 W/m/K
3232 kPa	0.07138 W/m/K	–
3234 kPa	0.07128 W/m/K	–
3235 kPa	–	0.07701 W/m/K
3236 kPa	0.07122 W/m/K	–
3238 kPa	0.07122 W/m/K	–
3240 kPa	–	0.07636 W/m/K
3242 kPa	0.07105 W/m/K	–
3245 kPa	0.07105 W/m/K	0.07571 W/m/K
3248 kPa	0.07105 W/m/K	–
3250 kPa	0.07072 W/m/K	0.07508 W/m/K
3252 kPa	0.07072 W/m/K	–
3254 kPa	0.07072 W/m/K	–
3255 kPa	–	0.07386 W/m/K
3256 kPa	0.07039 W/m/K	–
3258 kPa	0.07039 W/m/K	–
3260 kPa	0.07039 W/m/K	0.07266 W/m/K
3265 kPa	0.0704 W/m/K	0.07151 W/m/K
3270 kPa	0.07008 W/m/K	0.07151 W/m/K
3275 kPa	–	0.07209 W/m/K
3280 kPa	0.06975 W/m/K	0.07209 W/m/K
3285 kPa	–	0.07209 W/m/K
3290 kPa	0.0696 W/m/K	0.07267 W/m/K
3295 kPa	–	0.07267 W/m/K
3300 kPa	0.06944 W/m/K	0.07151 W/m/K
3305 kPa	–	0.07151 W/m/K
3310 kPa	0.06944 W/m/K	0.07151 W/m/K
3315 kPa	–	0.07095 W/m/K
3320 kPa	0.06912 W/m/K	–
3325 kPa	–	0.07095 W/m/K
3330 kPa	–	0.07095 W/m/K
3335 kPa	–	0.07144 W/m/K
3340 kPa	0.06881 W/m/K	0.07144 W/m/K
3345 kPa	–	0.07144 W/m/K
3350 kPa	0.0685 W/m/K	0.07144 W/m/K
3360 kPa	0.0685 W/m/K	0.07088 W/m/K
3365 kPa	–	0.07088 W/m/K
3370 kPa	0.0685 W/m/K	0.07033 W/m/K
3375 kPa	–	0.07033 W/m/K
3380 kPa	0.0685 W/m/K	–
3385 kPa	–	0.07033 W/m/K
3392 kPa	0.06834 W/m/K	–
3395 kPa	–	0.07033 W/m/K
3400 kPa	–	0.07033 W/m/K
3410 kPa	–	0.07088 W/m/K
3450 kPa	0.06819 W/m/K	0.07081 W/m/K
3455 kPa	–	0.07081 W/m/K
3460 kPa	–	0.07062 W/m/K and 0.07064 W/m/K
3470 kPa	–	0.07062 W/m/K
3480 kPa	–	0.07051 W/m/K
3490 kPa	–	0.07054 W/m/K
3500 kPa	0.0685 W/m/K	0.07026 W/m/K
3520 kPa	0.0686 W/m/K	–
3540 kPa	0.0686 W/m/K	–
3550 kPa	–	0.0701 W/m/K
3560 kPa	0.0686 W/m/K	–
3580 kPa	0.0686 W/m/K	–
3600 kPa	0.06851 W/m/K	0.07 W/m/K
3620 kPa	0.06851 W/m/K	–
3640 kPa	0.06854 W/m/K	–
3650 kPa	0.06857 W/m/K	0.06992 W/m/K
3670 kPa	0.0686 W/m/K	–
3680 kPa	0.06861 W/m/K	–
3700 kPa	0.06864 W/m/K	0.06992 W/m/K
3720 kPa	0.06873 W/m/K	–
3740 kPa	0.06883 W/m/K	–
3750 kPa	0.06886 W/m/K	0.06969 W/m/K
3800 kPa	0.06913 W/m/K	0.06964 W/m/K
3810 kPa	0.06917 W/m/K	–
3820 kPa	0.06922 W/m/K	–
3830 kPa	0.06922 W/m/K	–
3840 kPa	0.06919 W/m/K	–
3850 kPa	–	0.06975 W/m/K
3860 kPa	0.06928 W/m/K	–
3900 kPa	–	0.06992 W/m/K
3950 kPa	–	0.06992 W/m/K
3970 kPa	0.06973 W/m/K	–
3980 kPa	0.06964 W/m/K	–
4000 kPa	–	0.06992 W/m/K
4010 kPa	0.06977 W/m/K	–
4100 kPa	–	0.07009 W/m/K
4150 kPa	–	0.07009 W/m/K
4300 kPa	–	0.0702 W/m/K
4400 kPa	–	0.07048 W/m/K
4500 kPa	–	0.07048 W/m/K
4600 kPa	–	0.07077 W/m/K
4700 kPa	–	0.07105 W/m/K
4800 kPa	–	0.07105 W/m/K
